The text below walks through data of patent publication US11225505B2, “Antimicrobial polymyxin derivative compounds” (MONASH UNIVERSITY, priority 2015, dated 2022).

Converted amounts (≈) assume the structure as drawn. Where a SMILES comes first, the peptide text is derived from it. Bridges are numbered along the chain shown (N, C = ends). [ ]: non-standard residue; d: D form. The star is where a group is joined. X19 = O=C(c1ncc(C(F)(F)F)cc1Cl)*; X63 = O=C(c1ccc(C(F)(F)F)nc1Cl)*; X28 = Cc1cc(C(=O)*)cc(Cl)n1; X26 = CCc1ccc(C(=O)*)cn1; X30 = O=C(c1ccc(Cl)cn1)*; Dab = NCC[C@H](N)C(=O)O; Abu = CC[C@H](N)C(=O)O; Dap = NC[C@H](N)C(=O)O; X31 = O=C(c1ncccc1Cl)*; X53 = O=C(c1ccncc1Cl)*

Common to all, as to type: cell-based
For assay [1], the system named is Pseudomonas aeruginosa FADDI-PA022. Conditions: FADDI-PA022. An outline of the steps:
(§1)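 Antibacterial activity is given as MIC from microdilution in CAMHB under the CLSI M100-S24 standard. P. aeruginosa FADDI-PA022 and A. baumannii FADDI-AB034 are multidrug-resistant clinical isolates, while ATCC 17978 is a reference strain.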

Assay [2] relates to Klebsiella pneumoniae Kp BM1. Conditions: Kp BM1. The essentials:
(§2)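 Standard CLSI (M100-S24) microdilution in cation-adjusted broth gives the MIC for each strain. Test compounds are TFA-salt lipopeptides; the comparator is polymyxin B sulphate.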

The test system of assay [3] is Acinetobacter baumannii ATCC 17978. Conditions: ATCC 17978. An outline of the steps:
as §1

Assay [4] concerns Klebsiella pneumoniae FADDI-KP022. As to conditions: FADDI-KP022. An outline of the steps: as §1
In assay [5] the test system is Acinetobacter baumannii FADDI-AB034. As to conditions: FADDI-AB034. An outline of the steps:
as §1

In assay [6] the test system is Klebsiella pneumoniae FADDI-KP032. Conditions: FADDI-KP032. The essentials: as §1
Assay [7] has as its system Pseudomonas aeruginosa FADDI-PA01. Conditions: FADDI-. An outline of the steps:
as §1

Assay [8] relates to Enterobacter cloacae FADDI-EC006. Conditions: FADDI-EC006. The essentials:
as §1

Assay [9] has as its system Enterobacter cloacae FADDI-EC001. As to conditions: FADDI-EC001. An outline of the steps:
as §2

Assay [10] concerns Enterobacter cloacae FADDI-EC003. As to conditions: FADDI-EC003. The essentials:
as §1

Assay [11] relates to Pseudomonas aeruginosa FADDI-PA038. As to conditions: FADDI-PA038. The essentials:
as §1

Assay [12] concerns Pseudomonas aeruginosa ATCC 27853. As to conditions: ATCC 27853. An outline of the steps: as §1
For assay [13], the system named is Acinetobacter baumannii FADDI-AB030. The experiment in a line: microbe, parasite or virus in culture. Conditions: FADDI-AB030. The essentials: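 Broth microdilution MIC in cation-adjusted Mueller-Hinton broth per CLSI M100-S24; lipopeptides tested as TFA salts. FADDI-AB030 is a multidrug-resistant clinical isolate. Polymyxin B sulphate served as control.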

With `CC[C@@H]1NC(=O)[C@@H](CC(C)C)NC(=O)[C@H](CCN)NC(=O)[C@@H](NC(=O)[C@H](CN)NC(=O)[C@@H](NC(=O)[C@H](CCN)NC(=O)c2ccncc2Cl)[C@@H](C)O)CCNC(=O)[C@H]([C@@H](C)O)NC(=O)[C@H](CCN)NC(=O)[C@H](CCN)NC1=O` [Compound 34] (X53-[Dab]T[Dap][Dab][Dab][dL][Abu][Dab][Dab]T; lactam 4-C), the Minimum inhibitory concentration in assay [1] is 0.25 µg/mL (≈ 0.222 µM); in assay [2], 1 µg/mL (≈ 0.888 µM); in [3] it was 8 µg/mL (≈ 7.1 µM); in assay [4], below 0.125 µg/mL; in assay [5], 8 µg/mL (≈ 7.1 µM); in [6], 1 µg/mL (≈ 0.888 µM). The Minimum inhibitory concentration was found to be 0.25 µg/mL (≈ 0.222 µM) in [7]; 2 µg/mL (≈ 1.78 µM) in [8]; 0.25 µg/mL (≈ 0.222 µM) in assay [9]; 0.5 µg/mL (≈ 0.444 µM) in [10]; 1 µg/mL (≈ 0.888 µM) in assay [11]; 0.25 µg/mL (≈ 0.222 µM) in assay [12]. In assay [13], this molecule had a Minimum inhibitory concentration of 8 µg/mL (≈ 7.1 µM).

With `CC[C@@H]1NC(=O)[C@@H](CC(C)C)NC(=O)[C@H](CCN)NC(=O)[C@@H](NC(=O)[C@H](CN)NC(=O)[C@@H](NC(=O)[C@H](CCN)NC(=O)c2ncc(C(F)(F)F)cc2Cl)[C@@H](C)O)CCNC(=O)[C@H]([C@@H](C)O)NC(=O)[C@H](CCN)NC(=O)[C@H](CCN)NC1=O` [Compound 35] (X19-[Dab]T[Dap][Dab][Dab][dL][Abu][Dab][Dab]T; lactam 4-C), the Minimum inhibitory concentration in [1] is 0.5 µg/mL (≈ 0.419 µM); in [2] it was below 0.125 µg/mL; in assay [3], 0.25 µg/mL (≈ 0.209 µM); in assay [4] it was below 0.125 µg/mL; in assay [5], 0.25 µg/mL (≈ 0.209 µM); in [6], below 0.125 µg/mL. In addition, the Minimum inhibitory concentration in assay [7] was 0.25 µg/mL (≈ 0.209 µM); in assay [8] it was below 0.125 µg/mL; in assay [9], below 0.125 µg/mL; in assay [10] it was below 0.125 µg/mL; in assay [11], 0.5 µg/mL (≈ 0.419 µM); in [12] it was 0.25 µg/mL (≈ 0.209 µM). Besides, the Minimum inhibitory concentration in [13] was below 0.125 µg/mL.

`CC[C@@H]1NC(=O)[C@@H](CC(C)C)NC(=O)[C@H](CCN)NC(=O)[C@@H](NC(=O)[C@H](CN)NC(=O)[C@@H](NC(=O)[C@H](CCN)NC(=O)c2ncccc2Cl)[C@@H](C)O)CCNC(=O)[C@H]([C@@H](C)O)NC(=O)[C@H](CCN)NC(=O)[C@H](CCN)NC1=O` [Compound 36] (X31-[Dab]T[Dap][Dab][Dab][dL][Abu][Dab][Dab]T; lactam 4-C): the Minimum inhibitory concentration in assay [1] was 0.5 µg/mL (≈ 0.444 µM); in [2], 2 µg/mL (≈ 1.78 µM); in assay [3], 8 µg/mL (≈ 7.1 µM); in assay [4] it was below 0.125 µg/mL; in [5] it was 4 µg/mL (≈ 3.55 µM); in [6], 1 µg/mL (≈ 0.888 µM). The Minimum inhibitory concentration in assay [7] came out at 0.5 µg/mL (≈ 0.444 µM); in [8], 2 µg/mL (≈ 1.78 µM); in assay [9], 0.25 µg/mL (≈ 0.222 µM); in assay [10], 0.5 µg/mL (≈ 0.444 µM); in assay [11], 1 µg/mL (≈ 0.888 µM); in assay [12] it was 0.5 µg/mL (≈ 0.444 µM). For the same molecule, in assay [13], the Minimum inhibitory concentration came out at 4 µg/mL (≈ 3.55 µM).

On to `CC[C@@H]1NC(=O)[C@@H](CC(C)C)NC(=O)[C@H](CCN)NC(=O)[C@@H](NC(=O)[C@H](CN)NC(=O)[C@@H](NC(=O)[C@H](CCN)NC(=O)c2ccc(Cl)cn2)[C@@H](C)O)CCNC(=O)[C@H]([C@@H](C)O)NC(=O)[C@H](CCN)NC(=O)[C@H](CCN)NC1=O` [Compound 37] (X30-[Dab]T[Dap][Dab][Dab][dL][Abu][Dab][Dab]T; lactam 4-C), for which the Minimum inhibitory concentration was 0.25 µg/mL (≈ 0.222 µM) in assay [1]; below 0.125 µg/mL in assay [2]; 2 µg/mL (≈ 1.78 µM) in assay [3]; below 0.125 µg/mL in [4]; 1 µg/mL (≈ 0.888 µM) in [5]; below 0.125 µg/mL in [6]. Besides, the Minimum inhibitory concentration in [7] came to 0.25 µg/mL (≈ 0.222 µM); in assay [8] it was 0.5 µg/mL (≈ 0.444 µM); in assay [9], 0.25 µg/mL (≈ 0.222 µM); in assay [10] it was 0.25 µg/mL (≈ 0.222 µM); in assay [11], 0.5 µg/mL (≈ 0.444 µM); in assay [12] it was 0.25 µg/mL (≈ 0.222 µM). In [13], this molecule showed a Minimum inhibitory concentration of 0.5 µg/mL (≈ 0.444 µM).

Regarding `CC[C@@H]1NC(=O)[C@@H](CC(C)C)NC(=O)[C@H](CCN)NC(=O)[C@@H](NC(=O)[C@H](CN)NC(=O)[C@@H](NC(=O)[C@H](CCN)NC(=O)c2cc(C)nc(Cl)c2)[C@@H](C)O)CCNC(=O)[C@H]([C@@H](C)O)NC(=O)[C@H](CCN)NC(=O)[C@H](CCN)NC1=O` [Compound 39] (X28-[Dab]T[Dap][Dab][Dab][dL][Abu][Dab][Dab]T; lactam 4-C), the Minimum inhibitory concentration in [1] is 0.5 µg/mL (≈ 0.438 µM); in [2], 1 µg/mL (≈ 0.877 µM); in assay [3], 1 µg/mL (≈ 0.877 µM); in assay [4] it was below 0.125 µg/mL; in assay [5] it was 1 µg/mL (≈ 0.877 µM); in assay [6], 0.5 µg/mL (≈ 0.438 µM). Also, the Minimum inhibitory concentration was found to be 0.5 µg/mL (≈ 0.438 µM) in assay [7]; 1 µg/mL (≈ 0.877 µM) in [8]; 0.5 µg/mL (≈ 0.438 µM) in [9]; 0.5 µg/mL (≈ 0.438 µM) in [10]; 1 µg/mL (≈ 0.877 µM) in assay [11]; 0.5 µg/mL (≈ 0.438 µM) in assay [12]. The molecule further registered a Minimum inhibitory concentration in assay [13] of 0.5 µg/mL (≈ 0.438 µM).

For the molecule `CC[C@@H]1NC(=O)[C@@H](CC(C)C)NC(=O)[C@H](CCN)NC(=O)[C@@H](NC(=O)[C@H](CN)NC(=O)[C@@H](NC(=O)[C@H](CCN)NC(=O)c2ccc(C(F)(F)F)nc2Cl)[C@@H](C)O)CCNC(=O)[C@H]([C@@H](C)O)NC(=O)[C@H](CCN)NC(=O)[C@H](CCN)NC1=O` [Compound 40] (X63-[Dab]T[Dap][Dab][Dab][dL][Abu][Dab][Dab]T; lactam 4-C), the Minimum inhibitory concentration was 0.5 µg/mL (≈ 0.419 µM) in assay [1]; below 0.125 µg/mL in assay [2]; 0.5 µg/mL (≈ 0.419 µM) in [3]; below 0.125 µg/mL in assay [4]; below 0.125 µg/mL in [5]; below 0.125 µg/mL in assay [6]. In addition, the Minimum inhibitory concentration was 0.5 µg/mL (≈ 0.419 µM) in assay [7]; below 0.125 µg/mL in [8]; below 0.125 µg/mL in assay [9]; below 0.125 µg/mL in assay [10]; 1 µg/mL (≈ 0.837 µM) in [11]; 0.5 µg/mL (≈ 0.419 µM) in assay [12]. The Minimum inhibitory concentration in assay [13] is below 0.125 µg/mL.

As for `CCc1ccc(C(=O)N[C@@H](CCN)C(=O)N[C@H](C(=O)N[C@@H](CN)C(=O)N[C@H]2CCNC(=O)[C@H]([C@@H](C)O)NC(=O)[C@H](CCN)NC(=O)[C@H](CCN)NC(=O)[C@H](CC)NC(=O)[C@@H](CC(C)C)NC(=O)[C@H](CCN)NC2=O)[C@@H](C)O)cn1` [Compound 41] (X26-[Dab]T[Dap][Dab][Dab][dL][Abu][Dab][Dab]T; lactam 4-C), the Minimum inhibitory concentration is below 0.125 µg/mL in [1]; below 0.125 µg/mL in assay [2]; 2 µg/mL (≈ 1.79 µM) in assay [3]; below 0.125 µg/mL in [4]; 2 µg/mL (≈ 1.79 µM) in assay [5]; below 0.125 µg/mL in assay [6]. Moreover, the Minimum inhibitory concentration in assay [7] is 0.25 µg/mL (≈ 0.223 µM); in assay [8] it was 0.25 µg/mL (≈ 0.223 µM); in assay [9] it was below 0.125 µg/mL; in [10], below 0.125 µg/mL; in assay [11], 0.5 µg/mL (≈ 0.446 µM); in [12], 0.25 µg/mL (≈ 0.223 µM). The Minimum inhibitory concentration in assay [13] turned out to be 2 µg/mL (≈ 1.79 µM).
